# Results taken from patent US11066378B2, “Caffeic acid derivatives for anti-angiogenesis” (Taipei Medical University, priority 2015, dated 2021).
# Legend:
# [1] = tested on: MEK1/2-ERK1/2 and AKT-mTOR signaling pathway; test: VEGFR-2 downstream signaling cascades in HUVECs (immunoblot); assay type: cell-based, human; details: activation level rather than total protein level
# Method: (§1) The experiments were carried out as described previously (Pan et al., 2010). Briefly, the cells (5×10^5 cells/well) seeded on the 6-well plates and incubated with different concentrations (0.5, 1, and 2 μM) of K20E under normal culture condition for 15 min or 24 h to detect the expression levels of the phosphorylated proteins and the total proteins, respectively. The treated cells were harvested and lysed by using PROPREP® protein extraction solution (#17081; iNtRON Biotechnology, Gyeonggi-Do, South Korea). The cell lysates were further centrifuged at 13000×g at 4° C. for 10 min to collect the supernatants for sodium dodecyl sulfate-polyacrylamide gel electrophoresis (SDS-PAGE). Protein concentration was measured by the Bio-Rad protein assay kit (Bio-Rad, Hercules, Calif., USA) according to the manufacturer's instructions. Aliquots containing 30 μg protein were electrophoresed using 10% slab SDS-PAGE gels and then transferred to PVDF membranes (Immobilon-P™; Millipore, Bedford, Mass., USA). […] The luminescence signal was acquired by Fujifilm LAS-4000 system (San Leandro, Calif., USA) and quantified by using MultiGauge software (v3.0; Fujifilm). […] The relative protein expression was calculated according to the values of the control group (treated with 5% or 10% FBS alone) as 100%.
# HUVECs = test: Matrigel cell invasion assay; assay type: cell-based, human; details: 0.5 μM, 16 h, FIG. 3B
# Method: For evaluating cell migration, the HUVECs (1×10^5 cells/well) suspended within serum-free culture medium were seeded on inner surface of the upper chamber (ThinCerts™ Cell Culture Inserts with 8 μm pore size; #662638; Greiner Bio-One Inc., Monroe, N.C., USA) placed in the lower chamber (wells of a 24-well plate). For examining the cell invasion, the HUVECs were pre-mixed with equal volume of thawed Matrigel and rapidly seeded on the upper chamber. After 2 h for cell attachment, K20E at different concentrations (0.5, 1, and 2 μM) were added in the upper and the lower chambers, while 5% FBS as a chemoattractant was added in the lower chamber to facilitate cell migration or invasion. After 16 h incubation, the culture medium (or Matrigel) was removed clearly from inside the upper chamber, and the migrated or invasion cells attached on the outer surface of the upper chamber were fixed with 10% formaldehyde for 10 min at RT. The fixed cells were subsequently counterstained with hematoxylin. Relative cell number of each groups was counted from five random regions by light microscopy using a 40-fold magnification. The cell number of the control group (treated with 5% FBS alone) was defined as 100%.
# VEGF = VEGF level in LLC1 cells (immunoblot) and culture medium (ELISA); assay type: cell-based, mouse; details: 24 h, FIG. 5
# Method: as §1, with “100%. […]” for “100%.”
# [2] = tested on: LLC1 lung carcinoma tumor; test: Lewis lung carcinoma-bearing mouse model; assay type: in vivo; details: LLC1-bearing mice, 2-week treatment, 4 and 8 mg/kg/day intraperitoneal, FIG. 1A
# Source text: The experimental design and procedure according to the method reported by our previous study with minor modification (Liu et al., 2013). Briefly, male C57BL/6 mice (average of 8-week-old) were purchased from the BioLASCO (Taipei, Taiwan) and housed in a 12-h light/dark cycles with free access to food and water. All animal care followed the institutional animal ethical guidelines of ChinaMedical University (Taichung, Taiwan). After 1 week adaptation, the mice were divided randomly into three groups (n=6/group): Group 1 (control group; treatment with normal saline), Group 2 (treatment with 4 mg/kg body weight/day of […]), and Group 3 (treatment with 8 mg/kg body weight/day of […]). At first, the LLC1 lung cancer cells (6×10^5 cells in 100 μL of total volume) were injected subcutaneously into the back skin of mice to induce lung carcinoma xenografts. Two weeks later, the tumor-bearing mice began to receive the treatments according to experiment design (normal saline or […] with different dosages) by intraperitoneal injection once a day for two weeks. At the end of the study, the tumor masses were harvested to photograph and weighted.
# [3] = tested on: gelatinases (MMP-2 and MMP-9); test: Gelatinase protein (immunoblot) and activity (gelatin zymography) in HUVECs; assay type: cell-based, human; details: FIG. 6D
# Method: as §1, with “instructions.” for “instructions. Aliquots containing 30 μg protein were electrophoresed using 10% slab SDS-PAGE gels and then transferred to PVDF membranes (Immobilon-P™; Millipore, Bedford, Mass., USA).”
# The experiments were carried out according to the procedure of previous study with minor modification (Chen et al., 2012). […] The intensity of the digested bands was quantified by using Multi Gauge software. […]
structure (smiles),measurement,setting,value
COC(=O)/C=C/c1cc(OC(C)=O)c2c(c1)[C@H](C(=O)OC)[C@@H](c1ccc(OC(C)=O)c(OC(C)=O)c1)O2 [K20E],MEK1/2-ERK1/2 signaling,[1]; FIG. 6B,suppressed
same,AKT-mTOR signaling pathway,[1]; FIG. 6C,suppressed
same,5% FBS-induced cell invasion of the HUVECs,HUVECs,largely suppressed
same,intracellular level of VEGF protein,"VEGF; LLC1 cancer cells, immunoblot",dose-dependently decrease
same,secreted level of VEGF protein,"VEGF; LLC1 culture medium, ELISA",dose-dependently decrease
same,tumor mass,[2],dose-dependently reduced
same,activity levels of gelatinases (MMP-2 and MMP-9),[3]; gelatin zymography,evidently decreased
same,protein levels of gelatinases (MMP-2 and MMP-9),[3]; immunoblot,evidently decreased
